Each structure is given as a SMILES string.

The test system of data set [1] is L. major metacyclic promastigotes. Description: Murine model for cutaneous leishmaniasis (footpad infection). It counts as in vivo, BALB/c mice. The note with it: 10^5 L. major metacyclic promastigotes, intraperitoneal daily treatment. As for the experimental part: (§1) The in vivo experiments were comprised of four groups of five mice each: (1) infected, but not treated [control for the infection—100 μL of DMSO per day, drug diluent]; (2) treated with NC884, NC901 or NC2459, but not infected with the parasites [control for drug toxicity]; (3) infected with the parasites and treated with amphotericin B (8 mg/kg/day) [reference drug; positive control]; and (4) infected with the parasites and treated with NC884, NC901 or NC2459 [experimental group]. Luciferase expressing metacyclic promastigotes L. major (Freidlin V1) were obtained as described previously. Suspensions of 1×10^5 or 1×10^6 parasites per 50 μl of sterile DMEM (endotoxin-free) were injected with a 30G needle into the left hind footpad of BALB/c mice. Two weeks post-infection the compounds were administered once a day by intraperitoneal route, daily for 14 to 17 days. Twice a week, weights were recorded to monitor toxicity and the thickness of the infected footpad and the non-infected footpad was measured with digital calipers to monitor the progression of the disease. The parasitic load also was evaluated through in vivo imaging using luminescence (Kodak Image Station). The mice were injected intra-peritoneally with 150 mg/kg D-luciferin (Sigma, USA) 10 min before imaging, anesthetized with 1-2% isofluorane in oxygen during imaging and the net intensity emitted from the footpad was quantified using the KODAK Image Station software. Parasite burden was expressed as net intensity emitted from L. major infected footpad lesions normalized against the background fluorescence of uninfected mice. The presence/absence of parasites was confirmed by PCR using L. major methionine aminopeptidase (MetAP1) 1 specific primers: 5′-[…]-3′ (SEQ ID NO:1) and 5′-[…]-3′ (SEQ ID NO:2) on cDNA reverse transcribed from total RNA extracted from footpad lysate obtained by macerating footpad tissue fragments in Trizol (Invitrogen Life Technologies, United States) with the gentleMACS™ Dissociator (Miltenyi Biotec GmbH, Germany) following the manufacturer's protocol.

Data set [2] can be described thus: Weight and toxicity monitoring in treated infected mice. Format: in vivo, BALB/c mice. The settings on record: 10^5 infection experiment, daily IP treatment. As to the method: as §1

In the case of `C[C@@H]1[C@H](O)[C@@H](C)/C=C/C=C/C=C/C=C/C=C/C=C/C=C/[C@H](O[C@@H]2O[C@H](C)[C@@H](O)[C@H](N)[C@@H]2O)C[C@@H]2O[C@](O)(C[C@@H](O)C[C@@H](O)[C@H](O)CC[C@@H](O)C[C@@H](O)CC(=O)O[C@H]1C)C[C@H](O)[C@H]2C(=O)O` [amphotericin B, reference compound], the footpad swelling result in data set [1] is listed as “reduced footpad swelling”. In addition, the weight loss result in data set [2] is reported as “much more dramatic loss in weight”.

The record behind these values is patent US9669016B2, “Antiparasitic effect of Bis[3,5-Bis(Benzylidene)-4-Oxo-1-Piperidinyl]amide Derivatives” (priority 2014, dated 2017).
